For 35 molecules, IC50 results are on record in PubChem BioAssay AID686998 (Broad Institute, 2013).

The test system of the experiment is Cryptococcus neoformans growth, Alamar Blue, 24 h. As to the kind of experiment: Cryptococcus neoformans growth inhibition, dose response, Alamar Blue, cherry-picks (AID 686998). A general note: Resazurin is reduced to fluorescent resorufin, in cell work by metabolically active cells.

“And” between values parts separate entries of the source, which are not always exact repeats. Equal entries are not always repeated. Inconclusive results are not listed. The source made the active and inactive calls.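 Rule for the calls: active = falling signal with fitted half-maximal potency no higher than twice the top valid tested dose; inconclusive = poor fit quality, or flat fit spanning -70% to -30%; inactive = potency over limit, rising signal, or flat fit inside 30%.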 Where only a bound is given, the exact number is not on record here.

As for `Cc1cccc(-c2ccc([C@@H]3[C@@H](CO)N4CCCCN(S(=O)(=O)c5ccccc5C)C[C@@H]34)cc2)c1`, the half-maximal inhibitory concentration (IC50) is 2.62 µM.

For the molecule `Cc1ccc(C2CCN(C(=S)NC3CCCCC3)C2)cc1` (stereo not given), the concentration for half-maximal inhibition (IC50) was 9.63 µM.

With `CNC[C@@H]1OCCCC[C@@H](C)Oc2ccc(NC(=O)NC(C)C)cc2C(=O)N([C@@H](C)CO)C[C@H]1C`, the IC50 was > 70 µM (inactive). With `CCOc1ccc(CNC(=S)NCc2ccc(OCC)cc2)cc1`, the half-maximal inhibitory concentration (IC50) was 8.87 µM. Turning to `C[C@H](CO)N1C[C@H](C)[C@@H](CN(C)C(=O)Nc2ccc3c(c2)OCO3)Oc2ccc(NS(=O)(=O)c3cccs3)cc2C1=O`, the IC50 is 64.4 µM.

With `CC(C)COc1ccc(CNC(=S)NCc2ccccc2)cc1`, the IC50 was 5.43 µM.

Consider `COc1cccc(C(=O)NC(=S)Nc2ccccc2N2CCOCC2)c1`, for which the half-maximal inhibitory concentration (IC50) was 21.2 µM.

Consider `Cc1ccc2nc(C)c3c(c2c1)OC(C(C)(Cl)Br)C3` (stereo not given), for which the IC50 was 19 µM. In the case of `COC(=O)C1=C(C)N(Cc2ccc(F)cc2)C(=S)NC1c1cccc(Cl)c1` (stereo not given), the IC50 was 10.6 µM.

As to `COc1ccc(CN(C)C[C@@H]2Oc3ccc(NC(=O)C4CC4)cc3C(=O)N([C@@H](C)CO)C[C@H]2C)cc1`, the IC50 is 43.2 µM. With `CO[C@@H]1CN(C)C(=O)c2ccc(NC(C)=O)cc2OC[C@@H](C)N(C(=O)Cc2cccnc2)C[C@H]1C`, the IC50 was > 60 µM (inactive).

`CC(=O)N1[C@H](CO)[C@H](c2ccc(-c3ccccc3)cc2)[C@@H]1CNC(=O)C1CC1`: the IC50 was 4.92 µM. As to `C[C@H](CO)N1C[C@H](C)[C@@H](CN(C)S(=O)(=O)c2cn(C)cn2)Oc2c(NC(=O)Nc3ccccc3)cccc2C1=O`, the IC50 was > 70 µM (inactive). On to `O=C(NC(=S)Nc1ccccc1N1CCOCC1)c1ccc(Br)cc1`, for which the IC50 was 6.23 µM. The same measure for `COCCN1C(=O)CCC1(C)C(=O)Nc1c(C)cccc1C` (stereo not given): 30.2 µM; for `CCc1ccc(C(C)NC(=S)NCc2ccc(F)cc2)cc1` (stereo not given): 7.31 µM; for `CCCCN1C(=S)NC[C@@H]1Cc1ccccc1`: 20.9 µM. For `O=C(NC(=S)Nc1ccccc1N1CCOCC1)c1ccccc1F`, the 50% inhibitory concentration (IC50) was 20.9 µM. As to `C[C@H](CO)N1C[C@H](C)[C@H](CN(C)Cc2ccccc2F)Oc2cc(C3=CCCC3)ccc2S1(=O)=O`, the concentration for half-maximal inhibition (IC50) is 36.3 µM. Turning to `COC(=O)C1=C(C)N(Cc2ccc(F)cc2)C(=S)NC1c1cccc(Br)c1` (stereo not given), the IC50 is 6.82 µM.

Regarding `COC(=O)C1=C(C)N(Cc2ccccc2)C(=O)N[C@H]1c1cccc(F)c1`, the IC50 is 53.8 µM. Turning to `COC(=O)C1=C(C)N(Cc2ccc(F)cc2)C(=S)NC1c1ccc(Cl)cc1` (stereo not given), the concentration for half-maximal inhibition (IC50) is 11.4 µM.

`COc1cc(CO)cc(I)c1O[C@H]1C=C(C(=O)NCCO)C[C@@H](N(CC2CCCCC2)C(=O)c2cc3ccccc3oc2=O)[C@@H]1O`: the concentration for half-maximal inhibition (IC50) was 0.479 µM.

On to `Fc1ccccc1CNC(=S)NCc1ccc(Cl)cc1`, for which the IC50 is 12.8 µM. In the case of `Cc1ccc(NC(=S)NCc2ccc(Cl)cc2)c(OC(F)F)c1`, the IC50 was 10.2 µM. In the case of `COC(=O)C1=C(C)N(Cc2ccccc2)C(=S)NC1c1cccc(Br)c1` (stereo not given), the 50% inhibitory concentration (IC50) is 6.55 µM and 8.35 µM. As for `Cc1cccc(NC(=S)NN(Cc2ccccc2)c2ccccc2)c1C`, the half-inhibitory concentration (IC50) was 11.9 µM. As to `O=C(NC(=S)NCC1COc2ccccc2O1)c1ccc(Cl)cc1` (stereo not given), the 50% inhibitory concentration (IC50) is 6.31 µM. Turning to `O=C(COc1ccc2c(c1)CCC2)NCc1ccc(Cl)cc1`, the IC50 was 34.2 µM. As for `C[C@H](CO)N1C[C@H](C)[C@H](CN(C)C(=O)NC2CCCCC2)OCCCC[C@H](C)Oc2ccc(NS(=O)(=O)c3cn(C)cn3)cc2C1=O`, the figure is 47.7 µM. `C[C@H](CO)N1C[C@H](C)[C@@H](CN(C)Cc2ccc(Oc3ccccc3)cc2)Oc2ccc(NC(=O)Nc3ccc4c(c3)OCO4)cc2C1=O`: the IC50 was > 70 µM (inactive). For the molecule `COc1cccc(CNC(=O)COc2ccc(C(=O)c3ccccc3)cc2)c1`, the concentration for half-maximal inhibition (IC50) was 21 µM.

As for `O=C1CCC(C(=O)Nc2ccc([N+](=O)[O-])cc2)N1` (stereo not given), the half-maximal inhibitory concentration (IC50) is 10.1 µM. With `S=C(Nc1cccc(Cl)c1)Nc1ccccc1Oc1ccccc1`, the IC50 is 13.2 µM. For the molecule `COc1ccccc1/C=N/NC(=S)NCc1ccco1`, the half-inhibitory concentration (IC50) is 12.8 µM.

What is called IC50 is the concentration that gives 50% inhibition.
